Experimental data taken from patent US6825191B2, “Benzodiazepine derivatives” (Ajinomoto Co., Inc., priority 2000, dated 2004).
Counter-ions that a name gives are not always drawn.

Columns and labels:
human thrombin = target: T1, human thrombin (Homo sapiens, UniProt P00734); assay: Determination of thrombin-inhibiting activity (chromogenic substrate S-2238, initial rate); assay type: biochemical; conditions: negative logarithm of concentration inhibiting 50% of initial rate, tris hydrochloride buffer pH 8.4, room temperature; for IC50: read-out: Thrombin-inhibiting activity (pIC50) (converted)
T1 construct: solution of human thrombin (a product of SIGMA Co.); purchased SIGMA Co
Method: Determination of Thrombin-inhibiting Activity
130 μL of 100 mM tris hydrochloride buffer adjusted to pH 8.4 was added to 10 μl of an aqueous solution of a test compound. Then 10 μl of a solution of human thrombin (a product of SIGMA Co.) adjusted to 2 units/ml with tris hydrochloride buffer of pH 8.4 was added to the resultant mixture. After the incubation at room temperature for 10 minutes, 50 μl of a solution of D-phenylalanine-L-pipecolyl-L-arginine-P-nitroanilide dihydrochloride (S-2238; a product of Daiichi Kagaku Yakuhin Co.) adjusted to 0.4 mM with tris hydrochloride buffer of pH 8.4 was added thereto. The absorbance was determined and then the initial reaction rate was determined. A control was prepared in the same manner as that described above except that the solution of the compound to be tested was replaced with 10 μl of tris hydrochloride buffer adjusted to pH 8.4. The absorbance was determined with MICROPLATE READER Model 3550-UV (a product of BIO RAD) at a wave length of 405 nm at intervals of 15 seconds for 16 minutes. The negative logarithm (pIC50) of a concentration of the test compound which inhibits 50% of the activity (initial rate) of the thrombin in the absence of the test compound was determined, and employed as the index of the activity of inhibiting thrombin.

[1] = target: T2, activated human blood coagulation factor X (Homo sapiens, UniProt P00742); assay: Determination of activity of inhibiting the activated blood-coagulation factor X (chromogenic substrate, initial rate); assay type: biochemical; conditions: negative logarithm of concentration inhibiting 50% of initial rate, tris hydrochloride buffer pH 8.4, room temperature; for IC50: read-out: Activity of inhibiting activated blood coagulation factor X (pIC50) (converted)
T2 construct: purchased Enzyme Research Co
Method: Determination of Activity of inhibiting the Activated Blood-coagulation Factor X
130 μl of 100 mM tris hydrochloride buffer adjusted to pH 8.4 was added to 10 μl of an aqueous solution of a compound to be tested. Then 10 μl of a 0.5 unit/ml solution of activated human blood coagulation factor X (a product of Enzyme Research Co.) in tris hydrochloride buffer of pH 8.4 was added to the resultant mixture. After the incubation at room temperature for 10 minutes, 50 μl of a solution of N-benzoyl-L-isoleucyl-L-glutamyl-glycyl-L-arginyl-P-nitroanilide hydrochloride (a product of Peptide Institute Inc.) adjusted to 0.8 mM with tris hydrochloride (pH 8.4) was added thereto. The a absorbance was determined and then the initial reaction rate was determined. A control was prepared in the same manner as that described above except that the solution of the compound to be tested was replaced with 10 μl of tris hydrochloride buffer adjusted to pH 8.4. The absorbance was determined with MICROPLATE READER Model 3550-UV (a product of BIO RAD) at a wave length of 405 nm at intervals of 15 seconds for 16 minutes.

blood plasma = assay: Determination of blood anticoagulating activity by prothrombin time (PT) determination method; assay type: biochemical, human; conditions: negative logarithm of concentration which elongated PT of the control to twice as long; blood plasma of healthy people
Method: Determination of Blood Anticoagulating Activity
The blood anticoagulating activity was determined by a prothrombin time (PT) determination method. The PT was determined as follows: The blood was taken from healthy people. 3.8% aqueous trisodium citrate solution was added to the blood in a volume ratio of 1:10. The blood plasma was separated by the centrifugation. 5 μl of DMSO solution containing a test compound was added to 45 μl of the blood plasma. After the incubation apt room temperature for 2 minutes, a test tube containing the blood plasma solution was placed in Sysmex CA-3000 fully automatic blood coagulation determination device (a product of Toa Medical Electronics Co., Ltd), and incubated at 37° C. for 3 minutes. 100 μl of Sysmex PT II (rabbit brain tissue thromboplastin, 13.2 mM calcium chloride; a product of Toa Medical Electronics Co., Ltd) was fed into the test tube. PT was automatically determined with the device. A sample containing 5 μl of DMSO in place of the solution of the test compound was used as the control. The negative logarithm (pPT2) of the concentration of the test compound which elongated PT of the control to the twice as long was determined, and employed as the index of the blood anticoagulating activity.

T2 sequence (P00742 235-488 limits assumed): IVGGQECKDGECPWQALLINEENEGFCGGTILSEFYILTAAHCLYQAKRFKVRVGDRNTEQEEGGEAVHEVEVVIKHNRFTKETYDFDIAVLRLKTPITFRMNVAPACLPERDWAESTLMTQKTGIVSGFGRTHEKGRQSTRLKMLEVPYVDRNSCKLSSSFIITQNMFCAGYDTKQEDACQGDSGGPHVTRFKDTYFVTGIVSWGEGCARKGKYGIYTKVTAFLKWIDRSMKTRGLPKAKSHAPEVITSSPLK
T2 sequence (P00742 41-179 partner limits assumed): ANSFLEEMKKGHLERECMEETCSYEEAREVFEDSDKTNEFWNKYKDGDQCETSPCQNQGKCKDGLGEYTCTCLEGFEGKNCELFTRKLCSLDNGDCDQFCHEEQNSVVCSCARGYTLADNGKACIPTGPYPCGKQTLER

Compound | Thrombin-inhibiting activity (pIC50) (human thrombin) | Activity of inhibiting activated blood coagulation factor X (pIC50) [1] | IC50 (human thrombin) | IC50 [1] | Human blood anticoagulating activity (pPT2) (blood plasma)
O=C(O)C(F)(F)F.O=C(c1ccc(Cl)cc1)N1CC(=O)N(CC2CCN(c3ccncc3)CC2)c2ccccc2C1 [Compd. of Ex. 2, 4-(4-chlorobenzoyl)-1-[1-(4-pyridyl)-4-piperidylmethyl]-1,3,4,5-tetrahydrobenzo[e][1,4]diazepin-2-on trifluoroacetate] |  |  | > 100000 nM | 398 nM | 4.9
O=C(c1ccc(Cl)s1)N1CC(=O)N(CC2CCN(c3ccncc3)CC2)c2ccccc2C1 [Compd. of Ex. 24, 4-(5-chlorothiophene-2-carbonyl)-1-[1-(4-pyridyl)-4-piperidylmethyl]-1,3,4,5-tetrahydrobenzo[e][1,4]diazepin-2-on trifluoroacetate] |  |  | > 100000 nM | 794 nM | 
O=C(O)C(F)(F)F.O=C(c1ccc(Br)s1)N1CC(=O)N(CC2CCN(c3ccncc3)CC2)c2ccccc2C1 [Compd. of Ex. 25, 4-(5-bromothiophene-2-carbonyl)-1-[1-(4-pyridyl)-4-piperidylmethyl]-1,3,4,5-tetrahydrobenzo[e][1,4]diazepin-2-on trifluoroacetate] |  |  | > 100000 nM | 398 nM | 4.9
CC(=N)N1CCC(Oc2ccc(CN3C(=O)CN(C(=O)c4ccc(Cl)cc4)Cc4c(Cl)cccc43)cc2)CC1.O=C(O)C(F)(F)F [Compd. of Ex. 39, 6-chloro-4-(4-chlorobenzoyl)-1-[4-(1-(1-acetimidoyl)-4-piperidyloxy)benzyl]-1,3,4,5-tetrahydrobenzo[e][1,4]diazepin-2-on trifluoroacetate] | <4.0 | 6.7 |  |  | 4.8
O=C(c1ccc(CN2C(=O)CN(C(=O)c3ccc(Cl)cc3)Cc3ccccc32)cc1)N1CC=CC1 [Compd. of Ex. 49, 1-[4-(2,5-dihydro-1H-pyrrol-1-ylcarbonyl)benzyl]-4-(4-chlorobenzoyl)-1,3,4,5-tetrahydrobenzo[e][1,4]-diazepin-2-on] |  |  | 50100 nM | 31.6 nM | 5.0
O=C(O)CCc1ccc2c(c1)N(Cc1ccc(C(=O)N3CC=CC3)cc1)C(=O)CN(C(=O)c1ccc(Cl)cc1)C2 [Compd. of Ex. 65, 3-[4-(4-chlorobenzoyl)-2-oxo-1-[4-(2,5-dihydro-1H-pyrrol-1-ylcarbonyl)benzyl]-2,3,4,5-tetrahydro-1H-benzo[e][1,4]-diazepin-8-yl]propionic acid] |  |  |  | 39.8 nM | 4.7

Now from value to compound, other results behind:

Thrombin-inhibiting activity (pIC50) (human thrombin) | Activity of inhibiting activated blood coagulation factor X (pIC50) [1] | IC50 (human thrombin) | IC50 [1] | Compound | Human blood anticoagulating activity (pPT2) (blood plasma)
<4.0 | 6.4 |  |  | 4-(4-chlorobenzoyl)-1-[4-(1-acetoimidoyl)-4-piperidyloxy]benzyl]-1,3,4,5-tetrahydrobenzo[e][1,4]diazepin-2-on trifluoroacetate [Compd. of Ex. 27] | 4.8
 |  | > 100000 nM | 501 nM | O=C(O)C(F)(F)F.O=C(c1ccc(Br)cc1)N1CC(=O)N(CC2CCN(c3ccncc3)CC2)c2ccccc2C1 [Compd. of Ex. 9, 4-(4-bromobenzoyl)-1-[1-(4-pyridyl)-4-piperidylmethyl]-1,3,4,5-tetrahydrobenzo[e][1,4]diazepin-2-on trifluoroacetate] | 4.9
<4.0 | 6.9 |  |  | CC(=N)N1CCC(Oc2ccc(CN3C(=O)CN(C(=O)c4ccc(Cl)cc4)Cc4ccc(C(=O)O)cc43)cc2)CC1.O=C(O)C(F)(F)F [Compd. of Ex. 43, 4-(4-chlorobenzoyl)-2-oxo-1-[4-(1-(1-acetimidoyl)-4-piperidyloxy)benzyl]-2,3,4,5-tetrahydro-1H-benzo[e][1,4]-diazepine-8-carboxylic acid trifluoroacetate] | 5.2
